According to patent publication EP1190708A1, “Medical use of substances” (Tinnitus Forschungs- und Entwicklungs GmbH, priority 2000, dated 2002):

Legend:
[1] = tested on: inhibitory postsynaptic currents (IPSC) in outer hair cells; assay: Voltage-clamp recording of inhibitory postsynaptic currents in outer hair cells of the organ of Corti preparation; assay type: cell-based, Wistar rats; set-up: inhibition of postsynaptic currents (reversibility): dose or concentration left out as unconfirmed
Protocol: Organs of Corti were dissected from the cochleae of Wistar rats (11-24 days old) as described previously (Oliver, D. and Fakler, B. 1999. J. Physiol. (Lond.) 519 pt. 3, 791-800; Oliver, D., Klöcker, N., Schluck, J., Baukrowitz, T., Rup-persberg, J.P. and Fakler, B. 2000. Neuron 26, 591-601). The electrophysiology on OHCs was also described previously (Oliver, D. et al., 2000, see above).
(§1) In Fig 1B, postsynaptic currents were recorded from OHCs in voltage-clamp experiments when cells were held at -64 mV and the whole Corti preparation was superfused with high extracellular K^+ (150 mM) to depolarize the presynapse. Application of high K^+ and toxins as indicated by horizontal bars: current and time scaling as indicated.
as §1, with “3,” for “1B,”, “outer hair cells (OHCs)” for “OHCs”, “K^+” for “K^+ (150 mM)”, “indicated. […] This dose-dependent response determined for the IPSC in OHCs is illustrated in Fig. 3B.” for “indicated.”

[2] = target: T1, alpha9/alpha10 heteromeric acetylcholine receptors expressed in Xenopus oocytes (Rattus norvegicus, UniProt P43144+Q9JLB5); assay: Voltage-clamp recording of current responses to acetylcholine in oocytes expressing alpha9/alpha10 subunits; assay type: cell-based
T1 construct: expressed in transfected cells; host or cells: Xenopus laevis oocytes injected with in vitro synthesised mRNA
Protocol: In vitro mRNA synthesis and oocyte injections were performed as previously described (Fakler, B., Brandle, U., Glowatzki, E., Weidemann, S., Zenner, H.P. and Ruppersberg, J.P. 1995. Cell 80, 149-154; Oliver, D. et al., 2000, see above). The electrophysiology on oocytes was also performed as described previously (Oliver, D. et al., 2000, see above).
For further characterization of strychnine treatment on the nAChR, the mRNA of alpha9/alpha10 subunits of the acetylcholine receptor were injected in oocytes of Xexopus laevis.
After expression of these subunits, they were investigated by treatment with strychnine in voltage-clamp experiment. The cells were held at -30 mV. Current and time scaling are as indicated. As is shown in Fig. 2, similar results were obtained as in Fig. 1. Consistent with the model shown above, the current responses at the acetylcholine receptor could be blocked reversibly by application with the acetylcholine blocker strychnine.
For further characterization of memantine treatment on the neuronal acetylcholine receptor (nAChR), the mRNA of alpha9-/alpha10 subunits of the acetylcholine receptor were injected in oocytes of Xexopus laevis. After expression of that subunits, these subunits were investigated by treatment with memantine in voltage-clamp experiment. The cells were held at -30 mV. Current and time scaling are as indicated. As is shown in Fig. 4, similar results were obtained as in Fig. 3. In this experiment the polarization potential of the cells was meassured after application of 100 µM acetylcholine in the presence or absence of memantine. Consistent with the results obtained in Fig. 3, the current responses at the acetylcholine receptor could be blocked by application with memantine. A halfmaximal inhibition occurs at concentrations of approximately 1 µM, as is illustrated in Figur 4B.

T1 sequence (P43144 26-479): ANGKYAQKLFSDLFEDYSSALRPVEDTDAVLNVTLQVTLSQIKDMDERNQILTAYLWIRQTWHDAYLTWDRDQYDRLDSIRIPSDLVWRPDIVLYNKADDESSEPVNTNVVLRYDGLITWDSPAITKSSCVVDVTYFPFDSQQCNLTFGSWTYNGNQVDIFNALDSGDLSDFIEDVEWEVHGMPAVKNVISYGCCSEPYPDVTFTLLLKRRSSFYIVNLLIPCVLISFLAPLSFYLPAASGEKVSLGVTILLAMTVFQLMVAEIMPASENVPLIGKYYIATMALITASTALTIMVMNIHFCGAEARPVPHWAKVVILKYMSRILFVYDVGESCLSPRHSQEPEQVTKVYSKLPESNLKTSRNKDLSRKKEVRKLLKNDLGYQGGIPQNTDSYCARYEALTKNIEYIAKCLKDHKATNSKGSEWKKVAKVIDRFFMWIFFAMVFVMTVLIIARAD
T1 sequence (Q9JLB5 25-447): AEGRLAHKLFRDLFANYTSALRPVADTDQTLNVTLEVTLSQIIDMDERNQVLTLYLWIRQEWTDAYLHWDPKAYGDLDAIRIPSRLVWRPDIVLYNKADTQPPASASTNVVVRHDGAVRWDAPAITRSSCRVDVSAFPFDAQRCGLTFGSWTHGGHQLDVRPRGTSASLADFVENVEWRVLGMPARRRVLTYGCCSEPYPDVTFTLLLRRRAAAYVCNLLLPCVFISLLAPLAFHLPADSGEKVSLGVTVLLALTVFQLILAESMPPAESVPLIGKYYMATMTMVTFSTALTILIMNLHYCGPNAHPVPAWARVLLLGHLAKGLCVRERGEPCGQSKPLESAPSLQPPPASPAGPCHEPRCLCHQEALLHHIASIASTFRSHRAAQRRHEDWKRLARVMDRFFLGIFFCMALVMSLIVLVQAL

SMILES: O=C1C[C@@H]2OCC=C3CN4CC[C@]56c7ccccc7N1[C@H]5[C@H]2[C@H]3C[C@H]46 [strychnine]
- complete inhibition of postsynaptic currents at (concentration) [1]: 100 nM
- complete inhibition of current responses at the acetylcholine receptor at (concentration) [2]: 1 µM
- reversibility of block of the receptor [2]: reversible block of the receptor

SMILES: CC12CC3CC(C)(C1)CC(N)(C3)C2 [memantine]
- inhibition of postsynaptic currents (reversibility) ([1]; OHCs held at -64 mV, dose-dependent response, Fig. 3): reversibly inhibited
- IC50 ([1]; Rattus norvegicus, iPSC, OHCs held at -64 mV, high extracellular K+, Fig. 3B): ~16.6 µM
- IC50 [2]: ~1 µM
